Broadly, the IC50 is the concentration that inhibits the measured activity by half. The term melting point denotes the temperature of the solid-liquid transition. What is called inhibition is the share of the control response that was lost under treatment.

19 compounds from US6465523B1, “4-substituted-3-substituted-amino-cyclobut-3-ene-1,2-diones and analogs thereof as novel potassium channel openers” (American Home Products, priority 1998, dated 2002) can be followed below.

One data set relates to Bladder Tissue. The data set can be described thus: Smooth muscle (bladder) relaxing activity: inhibition of KCl-enhanced contractile activity of isolated rat bladder strips. The settings on record: for Bladder Tissue, I = percent inhibition of contractile activity / IC50 / inhibition at 30 µM: rat bladder strips, additional 15 mM KCl; for Bladder Tissue, I = percent inhibition of contractile activity / inhibition at 30 µM: percent inhibition at 30 μM (footnote *); for IC50: 50% inhibition of pre-drug contractile activity; for Ratio Aorta IC50 / Bladder IC50: selectivity for bladder over aorta tissue, rat; for inhibition at 30 µM: read-out: Bladder Tissue, I = percent inhibition of contractile activity. Type of data set: cell-based, Sprague-Dawley rats. On the procedure: The smooth muscle (bladder) relaxing activity of the compounds of this invention was established in accordance with standard pharmaceutically accepted test procedures with representative compounds as follows:
Sprague-Dawley rats (150-200 g) are rendered unconscious by CO2 asphyxiation and then euthanized by cervical dislocation. The bladder is removed into warm (37° C.) physiological salt solution (PSS) of the following composition (mM): NaCl, 118.4; KCl, 4.7; CaCl2, 2.5; […]; NaHCO3, 24.9; KH2PO4, 1.2; glucose, 11.1; EDTA, 0.023; gassed with […]; pH 7.4. The bladder is opened and then cut into strips 1-2 mm in width and 7-10 mm in length. The strips are subsequently suspended in a 10 mL tissue bath under an initial resting tension of 1.5 g. The strips are held in place by two surgical clips one of which is attached to a fixed hook while the other is attached to an isometric force transducer. […] The carbachol is then washed out and the tissue allowed to relax to its resting level of activity. Following a further 30 min. period of recovery an additional 15 mM KCl are introduced into the tissue bath. This increase in KCl concentration results in a large increase in the amplitude of spontaneous contractions (and initiation of contractions in previously quiescent strips) superimposed upon a small increase in basal tone. Following stabilization of this enhanced level .of contractile activity, incremental increases in the concentration of test compound or vehicle are introduced into the tissue bath. Contractile activity is measured for each compoundor vehicle concentration during the last minute of a 30 minute challenge.
The isometric force developed by the bladder strips is measured using a […] to elicit 50% inhibition of pre-drug contractile activity (IC50 concentration) and is calculated from this concentra-tion-response curve.

In the next data set the test system is Aorta Tissue. The data set can be described thus: Smooth muscle (aorta) relaxing activity: inhibition of KCl-evoked contracture of isolated rat thoracic aorta rings. Type of data set: cell-based, Sprague-Dawley rats. As to conditions: 30-35 mM KCl contracture, 50% inhibition of pre-drug contractile force. An excerpt:
The smooth muscle (aorta) relaxing activity of the compounds of this invention was established in accordance with standard pharmaceutically accepted test procedures with representative compounds as follows:
Male Sprague-Dawley rats (150-200 g) are rendered unconscious by CO2 asphyxiation and then euthanized by cervical dislocation. The thoracic aorta is removed into warm (37 deg.C.) physiological salt solution (PSS) of the following composition (mM): NaCl; 118.4; KCl, 4.7; CaCl2, 2.5; MgSO4.7H2O, 1.2; NaHCO3, 24.9; KH2PO4, 1.2; glucose, 11.1; EDTA, 0.023; gassed with 95% O2/5% CO2; pH 7.4. The aorta is cleaned of fat and loose adventitia and cut into rings 3-4 mm in width. The rings are subsequently suspended between two stainless steel wire tissue holders in a 10 ml tissue bath. One wire tissue holder is attached to a fixed hook while the other is attached to an isometric force transducer. Resting tension is set at 1 g. The tissues are to recover for a period of 60 mins. prior to beginning the experiment. Tissues are challenged with PSS containing 25 mM KCl to elicit a contracture. The tissues are then washed repeatedly with fresh PSS over a period of 30 mins. and allowed to recover to baseline tension. PSS containing 30-35 mM KCl is then introduced into the tissue bath to evoke a contracture that is allowed to stabilize for not less than 45 minutes. (Other stimuli such as norepine-phrine, PGF2a, histamine, angiotensin II, endothelin or PSS containing 80 mM KCl may also be used to evoke a contracture as necessary). Increasing concentrations of test compound or vehicle are then added to the tissue bath in a cumulative fashion.
Isometric force development by the aortic rings is measured using a force transducer and recorded on a polygraph. The percentage inhibition of contractile force evoked by each concentration of a given test compound is used to generate a concentration-response curve. The concentration of test compound required to elicit 50% inhibition of pre-drug contractile force (IC50 concentration) is calculated from this dose-response curve. (Log concentration versus response curves are approximately linear between 20% and 80% of the maximum response. As such, the IC50 concentration of the drug is determined by linear regression analysis (where x=log concentration and y=% inhibition) of the data points in the 20% to 80% region of the curve]. The maximum percentage inhibition of contractile force evoked by a test compound is also recorded for concentrations of test compound < or = to 30 μM. Data collected from 2 animals are averaged for primary screens.

With “3-(1,1-Dimethyl-2-phenyl-ethylamino)-4-(3-methoxy-phenyl)-cyclobut-3-ene-1,2-dione [Example 25]”, in the data set with Bladder Tissue, the “Bladder Tissue, I = percent inhibition of contractile activity” value is reported as 1 = 30.35%.
Turning to `CC(Nc1c(-c2ccc(Br)cc2)c(=O)c1=O)C(C)(C)C` (stereo not drawn) [Example 22, 3-(4-Bromo-phenyl)-4-(1,2,2-trimethyl-propylamino)-cyclobut-3-ene-1,2-dione], the melting point was in the range of 210.6 to 211.3 °C. For the same compound, the IC50 in the data set on Bladder Tissue amounted to 25.7 µM.
In the same order, the values of `COc1ccc(-c2c(NCCc3ccc(C(C)(C)C)cc3)c(=O)c2=O)cc1` [Example 8, 3-[2-(4-tert-Butyl-phenyl)-ethylamino]-4-(4-methoxy-phenyl)-cyclobut-3-ene-1,2-dione] are 258.1 to 260.2 °C and 11.2 µM.
Compound `CCC(C)(C)Nc1c(-c2ccc(OC)cc2)c(=O)c1=O` [Example 2, 3-(1,1-Dimethyl-propylamino)-4-(4-methoxy-phenyl)-cyclobut-3-ene-1,2-dione] displayed a melting point of 133 to 135 °C. Moreover, in the data set with Bladder Tissue, the IC50 turned out to be 2.5 µM and the “Ratio Aorta IC50 / Bladder IC50” value was found to be 15.1. The IC50 in the data set on Aorta Tissue came out at 37.6 ± 6.05 µM.
Turning to `COc1ccc(Cc2c(NC(C)C(C)(C)C)c(=O)c2=O)cc1.COc1ccc(Cc2c(NC(C)C(C)(C)C)c(=O)c2=O)cc1.COc1ccc(Cc2c(NC(C)C(C)(C)C)c(=O)c2=O)cc1.COc1ccc(Cc2c(NC(C)C(C)(C)C)c(=O)c2=O)cc1.O` (stereo not drawn) [Example 23, 3-(4-Methoxy-benzyl)-4-(1,2,2-trimethyl-propylamino)-cyclobut-3-ene-1,2-dione One-quarter Hydrate], the “Bladder Tissue, I = percent inhibition of contractile activity” value in the data set on Bladder Tissue is 1 = 10.2%.
`CC(Nc1c(/C=C/c2ccc(C#N)cc2)c(=O)c1=O)C(C)(C)C` (stereo not drawn) [Example 27, 4-{(E)-2-[3,4-Dioxo-2-(1,2,2-trimethyl-propylamino)-cyclobut-1-enyl]-vinyl}-benzonitrile] displayed a melting point of 240.2 to 241 °C. Moreover, the IC50 in the data set on Bladder Tissue turned out to be 2.94 µM.
As to `CCC(C)(C)Nc1c(-c2cccnc2)c(=O)c1=O.Cl` [Example 12, 3-(1,1-Dimethyl-propylamino)-4-(pyridin-3-yl)-cyclobut-3-ene-1,2-dione Hydrochloride], the melting point was 152 to 155.9 °C (dec.). Further, the inhibition at 30 µM with Bladder Tissue is 26%.
The corresponding values for `CCC(C)(C)Nc1c(-c2ccc(C(F)(F)F)cc2)c(=O)c1=O` [Example 11, 4-(4Trifluoromethyl-phenyl)-3-(1,1-dimethyl-propylamino)-cyclobut-3-ene-1,2-dione] are 115.4 to 119 °C (dec.) and 34.2%.
In the case of `CC(Nc1c(-c2ccc(C(F)(F)F)cc2)c(=O)c1=O)C(C)(C)C` (stereo not drawn) [Example 10, 3-(4-Trifluoromethyl-phenyl)-4-(1,2,2-trimethyl-propylamino)-cyclobut-3-ene-1,2-dione], the IC50 in the data set on Bladder Tissue was 15.6 µM.
As to `CC(=O)C(c1ccc(C(F)(F)F)cc1)c1c(NC(C)C(C)(C)C)c(=O)c1=O` (stereo not drawn) [Example 21, 3-[2-Oxo-1-(4-trifluoromethyl-phenyl)-propyl]-4-(1,2,2-trimethyl-propylamino)-cyclobut-3-ene-1,2-dione], in the data set on Bladder Tissue, the IC50 was 16.2 µM.
The compound `COc1ccc(-c2c(N[C@H](C)c3ccccc3)c(=O)c2=O)cc1` [Example 6, (−)-3-(4-Methoxy-phenyl)-4-((R)-1-phenyl-ethylamino)-cyclobut-3-ene-1,2-dione] displayed a melting point of 158.7 to 160.1 °C. Besides, the IC50 in the data set on Bladder Tissue came to 26.9 µM.
Regarding `CC(Nc1c(-c2ccc(C#N)cc2)c(=O)c1=O)C(C)(C)C` (stereo not drawn) [Example 9, 4-[3,4-Dioxo-2-(1,2,2-trimethyl-propylamino)-cyclobut-1-enyl]benzonitrile], in the data set with Bladder Tissue, the inhibition at 30 µM was 27.2%.
In turn, `COc1ccc(-c2c(NCC(C)c3ccccc3)c(=O)c2=O)cc1` (stereo not drawn) [Example 7, 3-(4-Methoxy-phenyl)-4-(2-phenyl-propylamino)-cyclobut-3-ene-1,2-dione] returned a melting point of 215.4 to 216.2 °C. Further, the inhibition at 30 µM in the data set on Bladder Tissue came to 7.4%.
On to `CC(Nc1c(/C=C/c2ccc(Br)cc2)c(=O)c1=O)C(C)(C)C` (stereo not drawn) [Example 26, 3-[(E)-2-(4-Bromo-phenyl)-vinyl]-4-(1,2,2-trimethyl-propylamino)-cyclobut-3-ene-1,2-dione], for which the inhibition at 30 µM in the data set with Bladder Tissue worked out at 15.6%.
`COc1ccc(-c2c(NC(C)C(C)(C)C)c(=O)c2=O)cc1` (stereo not drawn) [Example 4, 3-(4-Methoxy-phenyl)-4-(1,2,2-trimethyl-propylamino)-cyclobut-3-ene-1,2-dione] yielded a melting point of 179 to 181 °C. Also, in the data set with Bladder Tissue, the IC50 came to 9.51 µM and the “Ratio Aorta IC50 / Bladder IC50” value turned out to be 2.56. In the data set with Aorta Tissue, this compound had an IC50 of 24.2 ± 6.3 µM.
The corresponding values for `COc1ccc(-c2c(NC(C)(C)Cc3ccccc3)c(=O)c2=O)cc1` [Example 1, 3-(1,1-Dimethyl-2-phenyl-ethylamino)-4-(4-methoxy-phenyl)-cyclobut-3-ene-1,2-dione] are 150 to 151 °C, 1.2 µM, 2.71 and 3.25 ± 0.35 µM.
In the case of `COc1ccc(C(C(C)=O)c2c(N(C(=O)OC(C)(C)C)C(C)C(C)(C)C)c(=O)c2=O)cc1` (stereo not drawn) [Example 24], the IC50 in the data set with Bladder Tissue came to 15.9 µM.
The compound `COc1ccc(-c2c(NCCc3cccc(C(F)(F)F)c3)c(=O)c2=O)cc1` [Example 5, 3-(4-Methoxy-phenyl)-4-[2-(3-trifluoromethyl-phenyl)-ethylamino]-cyclobut-3-ene-1,2-dione] displayed a melting point of 220.2 to 222.3 °C. For the same compound, the inhibition at 30 µM with Bladder Tissue was 9.75%.
`COc1ccc(-c2c(N(C)C(C)C)c(=O)c2=O)cc1` [Example 3, 3-(Isopropyl-methyl-amino)-4-(4-methoxy-phenyl)-cyclobut-3-ene-1,2-dione] returned a melting point of 109 to 115 °C. Moreover, in the data set on Bladder Tissue, the IC50 was determined as 12 µM and the “Ratio Aorta IC50 / Bladder IC50” value is 3.85. For the same compound, half-maximal inhibition in the data set with Aorta Tissue (IC50) was put at 46.2 ± 7.8 µM.
